Assay [1] has as its system human monocytes. Put plainly: TNFa and CCL2 production by human monocytes. In kind it is cell-based. The conditions noted are these: 1 ug/ml 15-HC. As for the experimental part: FIGS. 10A and 10B are bar graphs showing TLR2 mediated activation of PARP-1 by 15-HC. PARP-1 enzymatic activity (10A) and TNFalpha and CCL2 (10B) of PBMCs incubated with 15-HC alone, or in combination with AIQ, blocking antibodies to TLR2 or IC control.
To investigate whether the TLR2/PARP-1 axis is functional in human we activated PBMCs from healthy controls with 15-HC, in the presence or not of PARP-1 or TLR2 inhibitors. […] Thus, 15-HC activates PARP-1 in human monocytes by a TLR2 dependent pathway that results in the release of the pro-inflammatory mediators TNFa and CCL2.

Assay [2] addresses T1, PARP-1 (Homo sapiens, UniProt P09874). The assay can be described thus: PARP-1 enzymatic activity in human PBMCs (PARP HT Universal Colorimetric Kit). More on the design: endogenous in cells; host or cells: human PBMCs / monocytes / dendritic cells / T and B cells from healthy controls and MS patients. Conditions: healthy controls, 1 ug/ml 15-HC. In kind it is cell-based. Here is the method: PARP-1 enzymatic activity (10A) and TNFalpha and CCL2 (10B) of PBMCs incubated with 15-HC alone, or in combination with AIQ, blocking antibodies to TLR2 or IC control.
To investigate whether the TLR2/PARP-1 axis is functional in human we activated PBMCs from healthy controls with 15-HC, in the presence or not of PARP-1 or TLR2 inhibitors.
Target sequence in this assay (P09874 whole entry): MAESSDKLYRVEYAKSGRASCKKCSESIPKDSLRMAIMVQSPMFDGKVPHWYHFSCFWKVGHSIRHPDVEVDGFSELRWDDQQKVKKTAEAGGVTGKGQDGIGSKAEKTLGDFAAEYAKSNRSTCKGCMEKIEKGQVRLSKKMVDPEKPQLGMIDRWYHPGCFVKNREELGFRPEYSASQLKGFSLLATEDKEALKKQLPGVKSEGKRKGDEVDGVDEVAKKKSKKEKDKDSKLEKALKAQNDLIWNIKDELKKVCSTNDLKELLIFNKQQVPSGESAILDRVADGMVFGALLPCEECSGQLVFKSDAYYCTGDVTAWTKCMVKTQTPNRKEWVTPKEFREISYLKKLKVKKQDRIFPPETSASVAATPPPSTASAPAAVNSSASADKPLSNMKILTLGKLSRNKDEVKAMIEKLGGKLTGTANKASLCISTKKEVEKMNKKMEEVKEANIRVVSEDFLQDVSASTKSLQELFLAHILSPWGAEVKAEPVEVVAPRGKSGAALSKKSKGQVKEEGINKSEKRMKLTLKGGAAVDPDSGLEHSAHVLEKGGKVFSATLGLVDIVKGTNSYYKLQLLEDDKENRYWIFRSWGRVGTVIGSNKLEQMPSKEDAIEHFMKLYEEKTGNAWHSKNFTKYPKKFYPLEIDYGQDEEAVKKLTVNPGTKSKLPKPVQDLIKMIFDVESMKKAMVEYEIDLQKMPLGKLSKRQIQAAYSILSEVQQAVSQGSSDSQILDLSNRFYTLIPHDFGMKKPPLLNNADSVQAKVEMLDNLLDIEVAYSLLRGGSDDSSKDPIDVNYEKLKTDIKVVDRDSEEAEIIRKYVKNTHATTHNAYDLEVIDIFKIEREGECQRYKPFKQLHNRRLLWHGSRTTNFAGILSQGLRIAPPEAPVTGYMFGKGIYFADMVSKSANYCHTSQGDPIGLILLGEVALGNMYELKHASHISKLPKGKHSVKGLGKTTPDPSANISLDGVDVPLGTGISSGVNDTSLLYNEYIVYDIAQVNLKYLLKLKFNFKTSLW

Assay [3] addresses T1, PARP-1. Put plainly: PARP-1 activity in a cell-free system with oxysterol-pretreated DNA. In kind it is biochemical. Here is the method:
FIGS. 4A-D show the results of activation of microglia, macrophages and astrocytes by 15-HC. 4A, a bar graph showing PARP-1 activity in a cell-free system where recombinant PARP-1 was incubated with DNA which as been pretreated with 15-HC or 7-KC. Non-pretreated DNA was used as a negative control and ssb-DNA as a positive control. Data is shown as Mean±SEM. 4B, a pair of bar graphs showing PARP-1 activity measured in microglia, macrophages or astrocytes incubated with 15-HC or 7-KC. The data is shown as the fold of change between vehicle and lipid-treated cells (Mean±SEM). 4C, a pair of bar graphs showing percent inhibition of PARP-1 activity in microglia, macrophages or astrocytes activated with 15-HC or 7-KC […] in the presence of 5-AIQ. 4D, a table showing levels of TNF-α, CCL-2 and NO secretion by 15-HC or 7-KC treated microglia, macrophages or astrocytes (Mean±SEM).
Thus, the effect of 15-HC on PARP-1 activity was investigated using an in vitro system.
Target sequence in this assay (P09874 whole entry, species assumed): as the sequence (P09874 whole entry) above

For assay [4], the target named is PARP-1 (Mus musculus, UniProt P11103). The assay can be described thus: Cellular PARP-1 activity in microglia, macrophages or astrocytes. In kind it is cell-based. More on the design: host or cells: C8B4 microglia, C8-D1A astrocytes, Raw 264.7 macrophages.
Protocol: 5A, a bar graph showing the time course of microglial PARP-1 activation by 15-oxysterols or 7-KC. PARP-1 activity is shown as Mean±SEM. […] (Mean±SEM) 5C, a bar graph showing activation of microglial PARP-1 by 15-HC in the presence of kinase inhibitors (Mean±SEM).
PARP-1 activity was measured using PARP HT Universal Colorimetric Kit (Trevigen, MD, USA), following manufacturer instructions.
Cells were cultured with DMEM supplemented with 10% fetal bovine serum, 2 mM L-glutamine, 25 mM HEPES, and 1 mM sodium pyruvate. Cells in logarithmic growth were treated with 1 μg/ml of 15-HC for 1, 5, 15, and 30 minutes in serum-free medium. Blocking antibodies (Ebioscience, San Diego, Calif., USA) were added in some experiments at a final concentration of 10 ug/ml.
Assay [5] relates to TLR2. Put plainly: PARP-1 activity in HEK-293 cells transfected or not with TLR2. In kind it is cell-based, human. The source says: FIGS. 6A-B are bar graphs showing that PARP-1 activation by 15-HC is mediated by TLR2 A. TLR2 blocking antibody abrogates PARP-1 activation by 15a-HC. 6A, a set of three bar graphs showing PARP-1 activity in microglia, macrophages or astrocytes activated with 15-HC in the presence of blocking antibodies to TLR2 or TLR4, or isotype controls (Mean±SEM). 6B, a bar graph showing PARP-1 activity in HEK-293 cells transfected or not with a plasmid coding for TLR2 and activated with 15-HC (Mean±SEM).

For assay [6], the system named is Erk / PARP-1 interaction. The assay can be described thus: Co-immunoprecipitation of ERK and PARP-1. In kind it is cell-based, mouse. Conditions: microglia and macrophages activated with 15-HC. Here is the method: 5A, a bar graph showing the time course of microglial PARP-1 activation by 15-oxysterols or 7-KC. PARP-1 activity is shown as Mean±SEM. 5B, a set of eight bar graphs showing signaling pathways activated by 15-HC. Microglial cells were stimulated with 15-HC and lysed at 1, 5, and 15 minutes. Signal transduction arrays were made with the lysates and probed with phospho-specific antibodies. 15a-HC increases the phosphorylation of TAK1 (top right), IRAK (top left), Akt (second row, left), p38 MAPK (second row, right), Pyk2 (third row, left), PKC (third row, right), PI3K (bottom row, left), and Erk1/2 (bottom row, right). (Mean±SEM) 5C, a bar graph showing activation of microglial PARP-1 by 15-HC in the presence of kinase inhibitors (Mean±SEM). 5D, an immunoblot and a bar graph showing the results of co-immunoprecipitaiton of ERK and PARP-1. Microglial cells were treated with 15-HC, lysed, immunoprecipitated with antibodies to phosphorylated Erk and then the pulled down material was probed with antibodies to PARP-1.
Thus, co-immunoprecipitation studies were carried out to better characterize the mechanisms by which 15-HC activates PARP-1. Microglia and macrophages were activated with 15-HC, ERK-specific antibodies were used for immunoprecipitation, and the pulled down material was probed with antibodies to PARP-1.

The text below walks through data of US20140343095A1, “Methods of Diagnosing and Treating Multiple Sclerosis” (The Brigham and Women's Hospital, Inc., priority 2009, published 2014).

Chain of PARP-1 (Mus musculus, UniProt P11103) (P11103 whole entry): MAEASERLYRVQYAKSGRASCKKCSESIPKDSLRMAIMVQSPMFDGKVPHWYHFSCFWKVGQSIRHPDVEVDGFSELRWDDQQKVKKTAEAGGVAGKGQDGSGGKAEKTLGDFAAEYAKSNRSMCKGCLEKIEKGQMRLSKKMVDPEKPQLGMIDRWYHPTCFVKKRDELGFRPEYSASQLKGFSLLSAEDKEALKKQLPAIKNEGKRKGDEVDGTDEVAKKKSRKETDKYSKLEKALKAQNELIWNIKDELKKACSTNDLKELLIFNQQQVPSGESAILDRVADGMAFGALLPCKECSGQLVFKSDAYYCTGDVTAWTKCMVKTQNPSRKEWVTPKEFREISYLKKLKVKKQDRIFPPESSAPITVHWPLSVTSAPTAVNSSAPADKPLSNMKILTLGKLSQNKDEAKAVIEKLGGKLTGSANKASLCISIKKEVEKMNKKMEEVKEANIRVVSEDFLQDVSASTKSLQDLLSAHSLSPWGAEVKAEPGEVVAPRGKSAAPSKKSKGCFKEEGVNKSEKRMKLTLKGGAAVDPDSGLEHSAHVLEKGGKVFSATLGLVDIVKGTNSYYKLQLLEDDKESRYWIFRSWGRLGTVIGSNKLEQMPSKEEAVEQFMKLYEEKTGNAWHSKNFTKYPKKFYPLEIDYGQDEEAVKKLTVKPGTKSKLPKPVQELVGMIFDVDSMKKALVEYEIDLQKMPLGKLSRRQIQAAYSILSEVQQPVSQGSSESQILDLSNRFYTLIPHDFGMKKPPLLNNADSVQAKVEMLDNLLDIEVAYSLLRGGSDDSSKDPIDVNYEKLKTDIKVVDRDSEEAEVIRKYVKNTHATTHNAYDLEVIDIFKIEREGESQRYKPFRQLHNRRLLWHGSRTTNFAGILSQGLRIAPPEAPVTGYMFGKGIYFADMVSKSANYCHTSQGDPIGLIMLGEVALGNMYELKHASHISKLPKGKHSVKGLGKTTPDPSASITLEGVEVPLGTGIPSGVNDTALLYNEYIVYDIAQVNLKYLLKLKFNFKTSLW

Take 15-hydroxycholestene [15-HC]: in assay [1], the “production of TNFa and CCL2” value is “resulted in production”. Also, in assay [2], the “PARP-1 enzymatic activity in human PBMCs” value is “results in the activation”. For the same substance, in assay [3] (recombinant PARP-1 incubated with 15-HC alone), the “PARP-1 activity, oxysterol alone” value is recorded as “did not have a significant effect”. In addition, in assay [3] (recombinant PARP-1 plus DNA pretreated with 15-HC), the “PARP-1 activity, DNA pre-incubated with oxysterol” value is listed as “levels comparable to those achieved with 7-KC or single strand break DNA”. Besides, the “incubation time resulting in activation of PARP-1” value in assay [4] (macrophages or microglia) turned out to be 5 min. In addition, in assay [4] (macrophages, microglia or astrocytes), the “activation of cellular PARP-1” value is reported as “dose-dependent activation”. For the same substance, in assay [5] (transfected with a plasmid coding for TLR2), the “PARP-1 activity in HEK-293 cells transfected with TLR2” value is “significant activation”. The “PARP-1 activity in HEK-293 cells” value in assay [5] (untransfected, does not express TLR2) was “no significant effect”. For the same substance, the “interaction of Erk with PARP-1” value in assay [6] is reported as “significant interaction”.
